# Laboratory results taken from patent US20050197372A1 (priority 2002, published 2005).
# Columns and labels:
# [1] = tested on: human platelets (platelet-rich plasma); assay: Platelet-rich plasma aggregation induced by 5 μM epinephrine; type: cell-based; settings: for Platelet rich plasma platelet aggregation induced by 5 μM epinephrine: 60 minutes at 37° C., baseline 78 ± 10
# Experimental: (§1) None of them received aspirin or any other anti-platelet agents. All subjects underwent blood sampling after at least 30 minutes of rest and 2 or more hours of fasting. Blood was drawn between 8 and 10 a.m. in order to avoid any diurnal influence and sampled from an antecubital vein using a 21-gauge butterfly needle containing 3.8% sodium citrate (1:9 volume) after having discarded the first 1.5 ml of free running blood. Eleven Vacutainer tubes (4.5 ml) were collected for a total of 49 ml of whole blood-citrate mixture from each study participant. One tube was kept as an internal control and was incubated with buffer solution. […] To avoid possible observer bias, blood samples were coded and blinded. Sampling procedures, and platelet studies were performed by individuals unaware of the protocol.
# The citrate and whole blood mixture were centrifuged at 1200 g for 5 minutes in order to obtain platelet-rich plasma (PRP) which was kept at room temperature for use within 1 hour. Platelet counts were determined for each PRP sample with a Coulter Counter ZM (Coulter Co., Hialeah, Fla.). Platelet numbers were adjusted to 3.50×10 ^8/ml with homologous platelet-poor plasma. Platelet aggregation (PA) was induced by 5 μM ADP, and 5 μM epinephrine. All agonists were obtained from Chronolog Corporation (Havertown, Pa.). Aggregation studies were performed using a 4 channel Chronolog Lumi-Aggregometer (model 560-Ca). Aggregation was expressed as the maximum percentage of light transmittance change (% max) from the baseline at the end of the recording time, using platelet-poor plasma as a reference. Aggregation curves were recorded for 6 minutes and analyzed according to internationally established standards. Ruggeri Z M, Semin Hemat 1994; 31: 229-239.
# [2] = tested on: platelets (agglutination with fibrinogen-coated beads); assay: Ultegra rapid platelet-function assay (RPFA-ASA); type: cell-based, human; settings: baseline 159 ± 27
# Experimental: as §1
# A rapid platelet-function assay cartridge test (RPFA-ASA, Ultegra® Accumetrics, Inc., San Diego, Calif., USA), using polystyrene beads coated cartridges with lyophilized human fibrinogen-coated microparticles, and propyl gallat served as an agonist. The whole blood citrate mixture was added to the cartridge, and agglutination between platelets and coated beads was recorded. The data mirrored turbidometric platelet aggregation and reflected the degree of platelet prostaglandin blockade. Smith J W, et al., Circulation 1999; 99: 620-625. Ultegra® assays were performed in duplicate. An electronic quality control test was performed on each instrument every day of use prior to performing any subject samples.
# [3] = tested on: glycoprotein Ib (GPIb, CD42b); assay: Whole blood flow cytometry, GP Ib expression; type: cell-based, human; settings: for Expression of glycoprotein Ib (GPIb, CD42b): baseline 246.4 ± 26.7
# Experimental: as §1
# (§2) The expression of platelet receptors was determined by using the following monoclonal antibodies: CD31 (platelet endothelial cell adhesion molecule (PECAM-1), CD41 (glycoprotein [GP] IIb/IIIa, (IIb (3), CD42b (GP Ib), CD 51/CD61 ((v (3, or vitronectin receptor), CD62p (P-selectin), CD107a (lysosome associated membrane protein-1; LAMP-1), CD 107b (LAMP-2), CD151 (platelet/endothelial tetraspan antigen-3; PETA-3), and PAC-1 for fibrinogen-platelet (PharMingen, San Diego, Calif.). Platelet-leukocyte interactions were assessed by using dual antibodies for a pan-platelet marker (CD 151), together with CD14, a monocyte/macrophage marker. The blood-citrate mixture (50 μl) was diluted with 450 μl Tris buffered saline (TBS) (10 mmol/L Tris, 0.15 mol/L sodium chloride) and mixed by gently inverting an Eppendorf tube 2 times. Five μl of the corresponding antibodies were then added to each solution and the samples were incubated for 30 minutes. After incubation, 400 μl of 2% buffered paraformaldehyde was added for fixation. The samples were analyzed by a Becton Dickinson FACScan flow cytometer set up to measure fluorescent light scatter, as described in Gurbel P A, et al., J Am Coll Cardiol. 1998; 31: 1466-1473. The data were collected in list mode files and then analyzed. P selectin was expressed as percent positive cells as described in Gurbel P A, et al, Am Heart J 2000; 139: 320-328. Other antigens were expressed as log mean fluorescence intensity.
# P-selectin (CD 62p) = assay: Whole blood flow cytometry, P-selectin expression; type: cell-based, human; settings: for Expression of P-selectin (CD 62p): baseline 9.1 ± 3.8
# Experimental: as §1, §2
# [4] = tested on: lysosome associated membrane protein -1 (LAMP-1, CD107a); assay: Whole blood flow cytometry, LAMP-1 expression; type: cell-based, human; settings: baseline 8.7 ± 3.2
# Experimental: as §1, §2
# [5] = tested on: lysosome associated membrane protein -2 (LAMP-2, CD107b); assay: Whole blood flow cytometry, LAMP-2 expression; type: cell-based, human; settings: for Expression of lysosome associated membrane protein -2 (LAMP-2, CD107b): baseline 6.6 ± 2.1
# Experimental: as §1, §2
# [6] = tested on: platelet/endothelial tetraspan antigen -3 (PETA-3, CD151); assay: Whole blood flow cytometry, PETA-3 expression; type: cell-based, human; settings: for Expression of platelet/endothelial tetraspan antigen -3 (PETA-3, CD151): baseline 88.7 ± 24.2
# Experimental: as §1, §2
# [7] = tested on: platelet-leukocyte microparticles (CD151 + CD14); assay: Whole blood flow cytometry, platelet-leukocyte microparticles; type: cell-based, human; settings: for Formation of platelet-leukocyte microparticles (CD151 + CD14): baseline 92.2 ± 19.3
# Experimental: as §1, §2
# [8] = tested on: Glycoprotein IIb/IIIa activity (fibrinogen binding, PAC-1); assay: Whole blood flow cytometry, GP IIb/IIIa activity (PAC-1); type: cell-based, human; settings: for Glycoprotein IIb/IIIa activity (fibrinogen binding, PAC-1): baseline 10.3 ± 2.8
# Experimental: as §1, §2
smiles,measurement,setting,value
"CC(O)CCC(=O)N(Cc1ccc(-c2ccccc2-c2nnn[nH]2)cc1)[C@H](C(=O)O)C(C)C (stereo partly drawn) [Valeryl 4-hydroxy valsartan, (S)-2{(4-Hydroxy-pentanoyl)-[2′-(1H-tetrazol-5-yl)-biphenyl-4-ylmethyl]amino}-3-methyl-butyric Acid]",Effect on epinephrine-induced platelet aggregation (in words),"[1]; PRP, 5 μM epinephrine, preincubation with escalating doses 10 nM to 100 μM",inhibited epinephrine-induced aggregation in concentration 1 μM and 10 μM
same,Platelet rich plasma platelet aggregation induced by 5 μM epinephrine,[1]; drug 10 nM,77 ± 10%
same,Platelet rich plasma platelet aggregation induced by 5 μM epinephrine,[1]; drug 100 nM,76 ± 9%
same,Platelet rich plasma platelet aggregation induced by 5 μM epinephrine,[1]; drug 1 μM,54 ± 11%
same,Platelet rich plasma platelet aggregation induced by 5 μM epinephrine,[1]; drug 10 μM,56 ± 13%
same,Platelet rich plasma platelet aggregation induced by 5 μM epinephrine,[1]; drug 100 μM,52 ± 9%
same,"Effect on epinephrine-induced aggregation, FIG. 1 aggregation curves (in words)","[1]; one study patient, incubation with 1 μM",blocks epinephrine-induced aggregation
same,Ultegra Analyzer,[2]; drug 10 nM,177 ± 23 platelet activation units
same,Ultegra Analyzer,[2]; drug 100 nM,181 ± 31 platelet activation units
same,Ultegra Analyzer,[2]; drug 1 μM,134 ± 29 platelet activation units
same,Ultegra Analyzer,[2]; drug 10 μM,119 ± 38 platelet activation units
same,Ultegra Analyzer,[2]; drug 100 μM,168 ± 35 platelet activation units
same,"Expression of glycoprotein Ib (GPIb, CD42b)",[3]; drug 10 nM,236.4 ± 18.7 log MFI
same,"Expression of glycoprotein Ib (GPIb, CD42b)",[3]; drug 100 nM,267.9 ± 39.4 log MFI
same,"Expression of glycoprotein Ib (GPIb, CD42b)",[3]; drug 1 μM,255.5 ± 24.8 log MFI
same,"Expression of glycoprotein Ib (GPIb, CD42b)",[3]; drug 10 μM,249.7 ± 41.8 log MFI
same,"Expression of glycoprotein Ib (GPIb, CD42b)",[3]; drug 100 μM,248.1 ± 19.5 log MFI
same,Effect on GP Ib (CD42) (in words),[3]; whole blood flow cytometry,not associated with any effect
same,Expression of P-selectin (CD 62p),P-selectin (CD 62p); drug 10 nM,9.3 ± 4.3 % of cell positivity
same,Expression of P-selectin (CD 62p),P-selectin (CD 62p); drug 100 nM,10.2 ± 5.4 % of cell positivity
same,Expression of P-selectin (CD 62p),P-selectin (CD 62p); drug 1 μM,7.3 ± 3.7 % of cell positivity
same,Expression of P-selectin (CD 62p),P-selectin (CD 62p); drug 10 μM,6.9 ± 4.2 % of cell positivity
same,Expression of P-selectin (CD 62p),P-selectin (CD 62p); drug 100 μM,8.9 ± 3.8 % of cell positivity
same,Effect on P-selectin on platelet surface (in words),P-selectin (CD 62p); whole blood flow cytometry,significantly diminished
same,"Expression of lysosome associated membrane protein -1 (LAMP-1, CD107a)",[4]; drug 10 nM,10.2 ± 3.6 log MFI
same,"Expression of lysosome associated membrane protein -1 (LAMP-1, CD107a)",[4]; drug 100 nM,9.0 ± 4.0 log MFI
same,"Expression of lysosome associated membrane protein -1 (LAMP-1, CD107a)",[4]; drug 1 μM,6.6 ± 2.9 log MFI
same,"Expression of lysosome associated membrane protein -1 (LAMP-1, CD107a)",[4]; drug 10 μM,5.8 ± 3.2 log MFI
same,"Expression of lysosome associated membrane protein -1 (LAMP-1, CD107a)",[4]; drug 100 μM,8.0 ± 3.4 log MFI
same,"Expression of lysosome associated membrane protein -2 (LAMP-2, CD107b)",[5]; drug 10 nM,7.7 ± 3.8 log MFI
same,"Expression of lysosome associated membrane protein -2 (LAMP-2, CD107b)",[5]; drug 100 nM,7.0 ± 3.0 log MFI
same,"Expression of lysosome associated membrane protein -2 (LAMP-2, CD107b)",[5]; drug 1 μM,6.6 ± 3.4 log MFI
same,"Expression of lysosome associated membrane protein -2 (LAMP-2, CD107b)",[5]; drug 10 μM,7.2 ± 3.9 log MFI
same,"Expression of lysosome associated membrane protein -2 (LAMP-2, CD107b)",[5]; drug 100 μM,7.1 ± 2.9 log MFI
same,Effect on LAMP-2 (CD107b) (in words),[5]; whole blood flow cytometry,not associated with any effect
same,"Expression of platelet/endothelial tetraspan antigen -3 (PETA-3, CD151)",[6]; drug 10 nM,89.4 ± 18.2 log MFI
same,"Expression of platelet/endothelial tetraspan antigen -3 (PETA-3, CD151)",[6]; drug 100 nM,92.7 ± 22.2 log MFI
same,"Expression of platelet/endothelial tetraspan antigen -3 (PETA-3, CD151)",[6]; drug 1 μM,90.5 ± 15.7 log MFI
same,"Expression of platelet/endothelial tetraspan antigen -3 (PETA-3, CD151)",[6]; drug 10 μM,84.2 ± 31.1 log MFI
same,"Expression of platelet/endothelial tetraspan antigen -3 (PETA-3, CD151)",[6]; drug 100 μM,93.4 ± 27.4 log MFI
same,Effect on PETA-3 (CD151) (in words),[6]; whole blood flow cytometry,not associated with any effect
same,Formation of platelet-leukocyte microparticles (CD151 + CD14),[7]; drug 10 nM,99.4 ± 29.7 log MFI
same,Formation of platelet-leukocyte microparticles (CD151 + CD14),[7]; drug 100 nM,94.3 ± 18.7 log MFI
same,Formation of platelet-leukocyte microparticles (CD151 + CD14),[7]; drug 1 μM,90.7 ± 20.5 log MFI
same,Formation of platelet-leukocyte microparticles (CD151 + CD14),[7]; drug 10 μM,89.2 ± 18.7 log MFI
same,Formation of platelet-leukocyte microparticles (CD151 + CD14),[7]; drug 100 μM,95.6 ± 19.9 log MFI
same,Effect on platelet-leukocyte microparticles (CD151+14) (in words),[7]; whole blood flow cytometry,not associated with any effect
same,"Glycoprotein IIb/IIIa activity (fibrinogen binding, PAC-1)",[8]; drug 10 nM,11.0 ± 4.5 log MFI
same,"Glycoprotein IIb/IIIa activity (fibrinogen binding, PAC-1)",[8]; drug 100 nM,9.0 ± 3.3 log MFI
same,"Glycoprotein IIb/IIIa activity (fibrinogen binding, PAC-1)",[8]; drug 1 μM,6.7 ± 2.7 log MFI
same,"Glycoprotein IIb/IIIa activity (fibrinogen binding, PAC-1)",[8]; drug 10 μM,7.5 ± 3.1 log MFI
same,"Glycoprotein IIb/IIIa activity (fibrinogen binding, PAC-1)",[8]; drug 100 μM,9.9 ± 3.0 log MFI
same,Effect on fibrinogen binding (PAC-1) (in words),[8]; whole blood flow cytometry,slightly reduced
